Tests used:
[1] = test system: NK cells (CD3^-CD56^+); assay: NK cell numbers, viability and apoptosis in PBMCs (flow cytometry, DiOC6(3)/PI staining); type: cell-based, human
Protocol: (§1) To evaluate absolute cell numbers, an equal volume of PKH26 reference microbeads (Sigma-Aldrich) was added to each sample after staining for immune subset identification. Microbeads (5x10^3) were acquired by flow cytometry and absolute numbers of each immune population within the sample were calculated. Normalized percentage values were calculated considering the control (DMSO)-treated cells as 100%.
Cell viability and apoptosis were evaluated by double-staining with the mitochondrial inner transmembrane potential (ΔΨm)-sensitive dye DiOC6(3) (3,3'-dihexyloxacarbocyanine iodide; Sigma-Aldrich) and the exclusion dye propidium iodide (PI; Immunostep), allowing identification of apoptotic [DiOC6(3)^low PI^-] and dead [PI^+] cells as per Proc. Natl. Acad. Sci. U.S.A. (2014) 111(8):3020-3025 and Methods Mol. Biol. (2016) 1419:1-16. Briefly, PBMCs were resuspended in culture medium containing 20 nM DiOC6(3) and incubated for 30 minutes at 37 °C. Then, PI (1 µg/mL) was added and cells were further incubated for 10 minutes at room temperature (RT). Cells were analyzed by flow cytometry considering DiOC6(3)^+PI^- cells as viable. In some experiments, apoptosis was evaluated by staining with Annexin V/PI. Thus, PBMCs were incubated in Annexin V binding buffer containing 5 µg/mL Annexin V-FITC (Biolegend) for 15 minutes at RT and PI (1 µg/mL) was subsequently added. Data were normalized to the untreated control as a percentage. Only samples with at least 60% of viable cells (DiOC6(3)^+; Annexin V^-) in the control (DMSO) condition were employed in this study.
The effect of EC-7072 toward healthy immune subsets, T lymphocytes and natural killer (NK) cells, which are chronically exposed to leukemia cells in the peripheral blood of patients with CLL was assessed by: • (i) incubating PBMCs isolated from patients with CLL (n = 10) following treatment with increasing concentrations of EC-7072 (0 - 400 nM) for 24 hours. Numbers of T cells (CD3^+CD56^-) (Figure 2A) and NK cells (CD3^-CD56^+) (Figure 2B) were evaluated by flow cytometry and normalized to their respective control (DMSO) condition for each individual patient to obtain percentage of relative number of T cells and NK cells, respectively; • (ii) incubating PBMCs isolated from patients with CLL (n = 6 - 10) following treatment with increasing concentrations of EC-7072 (0 - 400 nM) for 24 hours. Viability of immune subsets (leukemia cells, T cells and NK cells) was determined by cytofluorometric assessment of DiOC6(3)/PI staining and normalized to their respective control (DMSO) condition for each individual patient to obtain percentage of viable [DiOC6(3)^+] cells (Figures 2C and 2D); • (iii) incubating PBMCs isolated from patients with CLL (n = 11) following treatment with DMSO or EC-7072 (200 nM) for 24 hours. Numbers of CD4^+ cells (Figure 2E) and CD8^+ T cells (Figure 2F) were evaluated by flow cytometry and normalized to their respective control (DMSO) condition for each individual experiment; • (iv) incubating PBMCs isolated from healthy donors (n = 15) following treatment with EC-7072 (200 nM) for 24 hours. […]

[2] = test system: leukemia cells; assay: Absolute leukemia cell number quantification by flow cytometry in PBMCs from patients with CLL; type: cell-based, human; details: 0 - 400 nM, 24 hours; PBMCs from patients with CLL (n = 13); dose-dependent; Figure 1A
Protocol: as §1
The in vitro cytotoxic activity of EC-7072 against primary CLL cells was assessed by: • (i) incubating PBMCs isolated from patients with CLL (n = 13) following treatment with increasing concentrations of EC-7072 (0 - 400 nM) for 24 hours. Numbers of leukemia cells were evaluated by flow cytometry and normalized to their respective control (DMSO) condition for each individual patient to obtain percentage of leukemia cells (Figure 1A); • (ii) incubating PBMCs from patients with CLL (n = 10) with or without EC-7072 (100-400 nM) for 24 hours. Viability of leukemia cells was determined by cytofluorometric assessment of DiOC6(3)/PI staining and normalized to their respective control condition to obtain percentage viability (Figure 1B); • (iii) incubating PBMCs from patients with CLL (n = 10) with increasing concentrations of EC-7072 (0 - 400 nM) for 24 hours. […]

SMILES: CO[C@@H]([C@@H]1Cc2cc3cc(O[C@H]4C[C@@H](O[C@H]5C[C@@H](O)[C@H](O)[C@@H](C)O5)[C@H](O)[C@@H](C)O4)c(C)c(O)c3c(O)c2C(=O)[C@H]1O[C@H]1C[C@@H](O[C@H]2C[C@@H](O[C@H]3C[C@](C)(O)[C@H](O)[C@@H](C)O3)[C@@H](O)[C@@H](C)O2)[C@H](O)[C@@H](C)O1)[C@@H](O)C(C)=O [EC-7072, mithramycin SK]
- ratio of apoptosis in NK cells relative to NK cell death ([1]; 200 nM, 24 hours, PBMCs from healthy donors (n = 4), Figure 2R): far lower ratio of apoptosis in NK cells relative to NK cell death than does EC-7073
- viability of NK cells, comparison of mithralogs ([1]; 200 nM, 24 hours, PBMCs from healthy donors (n = 10), Figure 2O): not exhibit toxicity
- cell numbers and viability of NK cells ([1]; 200 nM, 24 hours, PBMCs from healthy donors (n = 15), compared with PBMCs from patients with CLL): comparable effects
- NK cell survival ([1]; 200 nM, 24 hours, PBMCs from patients with CLL): only slightly altered
- toxicity against NK cells compared with fludarabine ([1]; EC-7072 200 nM 24 hours vs fludarabine 10 µM 24 hours, PBMCs from patients with CLL (n = 6 - 8), Figure 4F): significantly less toxic than fludarabine
- toxicity against NK cells compared with leukemia cells ([1]; high doses (400 nM), 24 hours, PBMCs from patients with CLL): significantly less toxic against NK cells than leukemia cells
- leukemia cell numbers [2]: significantly decreased
